Test results taken from patent US7589080B2, “β-cyclodextrin compositions, and use to prevent transmission of sexually transmitted diseases” (priority 2000, dated 2009).

Tests used:
Type in all cases: cell-based
[1] = test system: CXCR4, CD4 and CD45 on PHA blasts; assay: Immunostaining and confocal microscopy of PHA blasts
Protocol: Cell-surface staining of 2-OH-βCD-treated and untreated cells was performed under saturating conditions. 2-OH-βCD-treated and untreated PHA blasts (3×10^5) were washed in cold PBS and pre-incubated on ice for 15 min in 5% NGS/PBS. Cells were then incubated with MAb 1-5 μg in 5% NGS/PBS 45 min on ice, washed with PBS and then incubated with 2 μg of FITC-GAM in 5% NGS/PBS. The cells were then fixed with 2% paraformaldehyde in PBS and spun onto poly-L-lysine coated slides using cyto-funnels. The pellets were overlaid with 50 μl of 25% glycerol in PBS and a coverslip was positioned over the droplet. The edges of the slides were sealed with nail polish before storing them at 4° C. This staining procedure was also performed with cells prefixed with 2% paraformaldehyde in PBS prior to MAb staining. Viewing of slides was performed with an Olympus IX50 confocal microscope under oil immersion at 100x magnification. Micrographs were acquired onto a Silicon Graphics Workstation with Intervision software. Final images were enhanced on the Silicon Graphics Workstation by two-dimensional deconvolution, and brightness and contrast were adjusted for viewing.
Patchy staining of CXCR4 persisted after 2-OH-βCD treatment whether the cells were fixed before or after mAb staining. […]

[2] = test system: HIV-1RF chronically infected Jurkat cells; assay: Virus precipitation with MAbs after β-cyclodextrin treatment of infected cells
Protocol: Infected Jurkat cells (3×10^6) were treated with 20 mM hydroxypropyl-β-cyclodextrin (2-OH-βCD; Cyclodextrin Technologies Development, Inc.; Gainesville Fla.) in 3 ml of cRPMI or with cRPMI alone for 1 hr at 37° C. Cells were washed with PBS, then allowed to produce virus in 3 ml of cRPMI at 37° C. for 2 hr. Viral supernatants were clarified through a 0.45 Tm filter, and […] of MAb (10 mg/ml) in 5% NGS-PBS, and the mixture was incubated for 1 hr on ice. Pansorbin (SaC) (50 mg; Calbiochem; San Diego Calif.) was added to the solution and incubated for 20 min on ice. Complexes were washed sequentially with 10X and 1X PBS. Precipitated virus was lysed with […] of 1% Triton X-100 in cRPMI. Lysates were diluted, and p24 was quantitated by standard p24 ELISA.
The effects of 2-OH-βCD, a cellular cholesterol efflux inducing molecule, on the incorporation of host molecules into virions also was examined. By removing cholesterol, 2-OH-βCD is believed to partially perturb organized lipid rafts, resulting in dispersal of their components (Ilangumaran and Hoessli, Biochem. J. 335:433-440, 1998).

[3] = test system: total cellular cholesterol; assay: Cellular cholesterol measurement (cholesterol oxidase fluorimetric assay); settings: 10 to 20 mM for 1 hr at 37° C, then washing
Protocol: Cellular cholesterol was measured with a sensitive cholesterol oxidase-based fluorimetric assay (Amplex Red Cholesterol Kit) from Molecular Probes (Eugene Oreg.). Cholesterol content of cells was normalized to total cellular protein.
The role of lipid rafts in the HIV-1 fusion process was examined by treating CD4+HIV-susceptible target cells with 2-OH-βCD to deplete membrane cholesterol and disperse lipid rafts.

HIV-1RF = assay: Free virus binding assay (transfer of class II MHC to Jurkat cells)
Protocol: Virus binding was measured through host cell antigen transfer as described (Liao et al., supra, 2000). Briefly, Jurkat cells (1×10^6) were washed with serum free RPMI-1640 medium (iRPMI) before incubation in 20 mM 2-OH-βCD in iRPMI or iRPMI alone for 1 hr at 37° C. Cells were then washed twice with iRPMI before adding 100 Tl of clarified HIV-1 supernatant (>10 ng/ml of p24 from PM1 cells) for 1 hr on ice. Excess virus was removed by washing twice with iRPMI. MAbs were then added at 20 ug/ml in 5% NGS/PBS and allowed to incubate for 1 h on ice before washing with iRPMI. FITC-GAM (10 ug/ml) was then added for 45 min on ice before washing with iRPMI. Cells were then fixed with 2% paraformaldehyde followed by analysis on an EPICS Profile II flow cytometer.
The possibility that βCD treatment affected virus binding or interactions between gp120 and CD4 or CRs was examined. In order to measure virus binding to cells, a flow cytometry assay was used that measures the transfer of host cell class II MHC proteins to class II MHC-negative cells by HIV virions, which incorporate large numbers of these proteins into their lipid envelopes. […] Class II MHC-negative Jurkat cells were used as target cells in the HIV binding assay. As a positive control for flow cytometry analysis, class I MHC molecules were probed on the Jurkat cells, which were stained equally well with MAb against this protein before and after 2-OH-βCD treatment (Table 3). When HIV-1RF from class II MHC-positive PM1 cells was added to untreated Jurkat cells, class II MHC MAb mean channel fluorescence increased from 1.0 to 7.8 relative fluorescence units, while the percentage of positive cells increased from 3.0% to 55.4% (Table 3). 2-OH-βCD treatment of the cells reduced virus binding by 70%, as determined by mean channel fluorescence of the anti-class II MHC mAb.
HIV binding to Jurkat cells (control and 2-OH-βCD-treated) was measured by transfer of class II MHC molecules. MAbs used were MHM.5 (anti-class I MHC), positive control; MHM.33 (anti-class II MHC). “MCF” indicates mean channel fluorescence. “% Pos” indicates percent positive cells. “ND” indicates not determined.

[4] = infected Jurkat cells treated with 20 mM for 1 hr at 37° C, P<0.05

In the case of “2-hydroxypropyl-β-cyclodextrin [2-OH-βCD]”, the “Distribution of CXCR4 on the cell surface” value ([1]; PHA blasts after cholesterol depletion) is reported as “not significantly redistributed”, the “Distribution of CD4 and CD45 on the cell surface” value ([1]; PHA blasts after treatment) is reported as “unchanged” and the “Overall cellular release of p24” value ([2]; infected Jurkat cells after treatment) is reported as “increased”. For the same substance, the “CD45 capture of HIV-1” value ([2]; infected Jurkat cells treated with 20 mM for 1 hr at 37° C) was “remained mostly unaffected”, the “Capture of HIV-1 by MAb against CD59, percentage of total p24” value [2, 4] was “decreased substantially” and the “Capture of HIV-1 by MAb against gp41, percentage of total p24” value [2, 4] was “decreased substantially”. The “Decrease in capture of HIV-1 through Thy-1” value ([2]; infected Jurkat cells treated with 20 mM for 1 hr at 37° C, P=0.08) was “not statistically significant”, the “Depletion of total cellular cholesterol” value [3] was “greater than 70%” and the “Reduction of virus binding, by mean channel fluorescence of the anti-class II MHC mAb” value (HIV-1RF; Jurkat cells treated with 20 mM) was 70%. For the same substance, the “MHM5 (anti-class I MHC) % Pos” value (HIV-1RF; treated Jurkat cells, HIVRF) was 100%, the “MHM5 (anti-class I MHC) MCF” value (HIV-1RF; treated Jurkat cells, HIVRF) was 167.8 MCF and the “MHM33 (anti-class II MHC) % Pos” value (HIV-1RF; treated Jurkat cells, HIVRF) was 26.0%. The “MHM33 (anti-class II MHC) MCF” value (HIV-1RF; treated Jurkat cells, HIVRF) was 2.4 MCF, the “IgG1 % Pos” value (HIV-1RF; treated Jurkat cells, no virus) was 3.4% and the “IgG1 MCF” value (HIV-1RF; treated Jurkat cells, no virus) was 0.7 MCF. For the same substance, the “MHM5 (anti-class I MHC) % Pos” value (HIV-1RF; treated Jurkat cells, no virus) was 100%, the “MHM5 (anti-class I MHC) MCF” value (HIV-1RF; treated Jurkat cells, no virus) was 165 MCF and the “MHM33 (anti-class II MHC) % Pos” value (HIV-1RF; treated Jurkat cells, no virus) was 3.3%. For the same substance, the “MHM33 (anti-class II MHC) MCF” value (HIV-1RF; treated Jurkat cells, no virus) was 0.7 MCF.
